Patent publication US8445522B2, “Substituted 2-(4-pyridyl)benzoxazoles, and compositions thereof, for use in arthropod pest control” (Sumitomo Chemical Company, Limited, priority 2009, dated 2013)

How the values were obtained:
Type in all cases: in vivo
tobacco whitefly = assay: Test Example 4: test diluent scattered on tomato seedling with hatched tobacco whitefly larvae; conditions: 168 h; 500 ppm, 10 ml/cup scattered on tomato seedling at larvae stage, counted after seven days at 25° C.; read-out: Control value
Description: The formulations were diluted with water so that the concentration of the active ingredient became 500 ppm and thus test diluents were prepared. On the other hand, by releasing tobacco whitefly imagos to a tomato seedling planted in a plastic cup to allow them to lay eggs for about 24 hours. The tomato seedling was kept in a green house for eight days. At the stage in which larvae hatched from the laid eggs, any of the test diluents was scattered at the rate of 10 ml/cup. The tomato seedling was kept in the greenhouse at 25° C. for seven days. The number of survived larvae on tomato leaves was counted, and the control value was calculated by the following equation. Control value(%)={1−(Cb×Tai)/(Cai×Tb)}×100 wherein each character represents the following meaning: Cb: number of insects in non-treated section before treatment Cai: number of insects in non-treated section during observation Tb: number of insects in treated section before treatment Tai: number of insects in treated section during observation

[1] = system: cotton aphids (Aphis gossypii Glover); assay: Test Example 1: test diluent scattered on cucumber seedling inoculated with cotton aphids; conditions: 120 h, 500 ppm active ingredient, 10 ml scattered on cucumber seedling, counted five days after scattering, read-out: Control value
Description: The formulations were diluted with water so that the concentration of the active ingredient became 500 ppm and thus test diluents were prepared. On the other hand, a cucumber seedling (second true leaf development stage) planted in a plastic cup was inoculated with about 30 cotton aphids (Aphis gossypii Glover) and allowed to stand for one day. To the seedling, any one of the diluents (10 ml) was scattered. Five days after the scattering, the number of survived cotton aphids parasitic on the cucumber leaves was counted, and the control value was calculated by the following equation. Control value(%)={1−(Cb×Tai)/(Cai×Tb)}×100 wherein each character represents the following meaning: Cb: the number of insects in non-treated section before treatment Cai: the number of insects in non-treated section during observation Tb: the number of insects in treated section before treatment Tai: the number of insects in treated section during observation

cotton aphids = assay: Test Example 2: plant foot irrigation of cucumber seedling in urethane mat, cotton aphids inoculated one day after treatment; conditions: 168 h; 500 ppm, 5 ml plant foot irrigation, urethane mat; aphids inoculated one day after treatment, counted seven days after; read-out: Control value
Description: The formulations were diluted with water so that the concentration of the active ingredient became 500 ppm and thus test diluents were prepared. On the other hand, a plant foot of cucumber seedling (second true leaf development stage) planted in a urethane mat was irrigated with any one of diluents (5 ml). One day after the treatment, the cucumber leaves were inoculated with 30 cotton aphids (all stages). Further seven days after, the number of survived cotton aphids parasitic on the cucumber leaves was counted, and the control value was calculated by the following equation. Control value(%)={1−(Cb×Tai)/(Cai×Tb)}×100 wherein each character represents the following meaning: Cb: number of insects in non-treated section before treatment Cai: number of insects in non-treated section during observation Tb: number of insects in treated section before treatment Tai: number of insects in treated section during observation

rice brown planthopper = assay: Test Example 6: plant foot irrigation of rice plant seedling, rice brown planthopper released after seven days; conditions: Nilaparvata lugens, 144 h; 500 ppm, 5 ml plant foot irrigation of rice seedling; first-instars released after seven days, counted six days after; read-out: Control value
Description: The formulations were diluted with water so that the concentration of the active ingredient became 500 ppm and thus test diluents were prepared. On the other hand, a plant foot of rice plant seedling (two weeks after seeding, second leaf development stage) planted in a plastic cup was irrigated with any one of diluents (5 ml). The seedling was kept in a green house of 25° C. for seven days. Thirty first-instars of rice brown planthopper were released to the seedling, which was kept in the green house at 25 C for six days. Thereafter, the number of survived rice brown planthopper parasitic on rice plant leaves was counted, and the control value was calculated by the following equation. Control value(%)={1−(Cb×Tai)/(Cai×Tb)}×100 wherein each character represents the following meaning: Cb: number of insects in non-treated section before treatment Cai: number of insects in non-treated section during observation Tb: number of insects in treated section before treatment Tai: number of insects in treated section during observation

Compound	pest or weed control at 500 ppm (tobacco whitefly) [%]	pest or weed control at 500 ppm [1] [%]	pest or weed control at 500 ppm (cotton aphids) [%]	pest or weed control at 500 ppm (rice brown planthopper) [%]
FC(F)(F)c1ccc2nc(-c3ccncc3)oc2n1 [Active Compound 153, 2-(pyridin-4-yl)-5-(trifluoromethyl)oxazolo[5,4-b]pyridine]	≥ 90	–	–	–
FC(F)(F)c1ccc2nc(-c3ccncc3Cl)oc2n1 [Active Compound 154, 2-(3-chloropyridin-4-yl)-5-(trifluoromethyl)oxazolo[5,4-b]pyridine]	≥ 90	–	–	–
CCc1ccc2oc(-c3ccncc3)nc2c1 [active compound 3, 5-ethyl-2-(pyridin-4-yl)-benzoxazole]	≥ 90	–	–	–
CC(C)c1ccc2oc(-c3ccncc3)nc2c1 [active compound 5, 5-isopropyl-2-(pyridin-4-yl)-benzoxazole]	≥ 90	≥ 90	–	–
CC(C)(C)c1ccc2oc(-c3ccncc3)nc2c1 [active compound 6, 5-tert-butyl-2-(pyridin-4-yl)-benzoxazole]	≥ 90	≥ 90	–	–
FC(F)(F)c1ccc2oc(-c3ccncc3I)nc2c1 [active compound 29, 2-(3-iodopyridin-4-yl)-5-(trifluoromethyl)benzoxazole]	–	–	≥ 90	–
FC(F)(F)COc1cnccc1-c1nc2cc(C(F)(F)F)ccc2o1 [active compound 39, 2-[3-(2,2,2-trifluoroethyl)oxypyridin-4-yl]-5-(trifluoromethyl)benzoxazole]	–	–	–	≥ 90
CCSc1cnccc1-c1nc2cc(C(F)(F)F)ccc2o1 [active compound 41, 2-(3-ethylthiopyridin-4-yl)-5-(trifluoromethyl)benzoxazole]	–	–	–	≥ 90
Nc1cnccc1-c1nc2cc(C(F)(F)F)ccc2o1 [active compound 52, 2-(3-aminopyridin-4-yl)-5-(trifluoromethyl)benzoxazole]	≥ 90	–	–	–
FC(F)(F)c1ccc2oc(-c3ccncc3N3CCCC3)nc2c1 [active compound 53, 2-[3-(pyrrolidine-1-yl)pyridin-4-yl]-5-(trifluoromethyl)benzoxazole]	≥ 90	–	–	–
FC(F)(F)c1ccc2oc(-c3ccncc3N3CCOCC3)nc2c1 [active compound 55, 2-[3-(morpholin-4-yl)pyridin-4-yl]-5-(trifluoromethyl)benzoxazole]	–	–	≥ 90	–
FC(F)(F)c1ccc2oc(-c3ccncc3-n3ccnc3)nc2c1 [active compound 56, 2-[3-(imidazole-1-yl)pyridin-4-yl]-5-(trifluoromethyl)benzoxazole]	–	–	≥ 90	–
FC(F)(F)c1ccc2oc(-c3ccncc3OCC(F)(F)C(F)(F)F)nc2c1 [active compound 75, 2-[3-(2,2,3,3,3-pentafluoropropoxy)pyridin-4-yl]-5-(trifluoromethyl)benzoxazole]	–	–	–	≥ 90
FC(F)(F)Sc1ccc2oc(-c3ccncc3)nc2c1 [active compound 76, 2-(pyridin-4-yl)-5-(trifluoromethylthio)benzoxazole]	–	–	≥ 90	–
FC(F)(F)COc1cnccc1-c1nc2cc(C(F)(F)F)c(Cl)cc2o1 [active compound 92, 6-chloro-2-[3-(2,2,2-trifluoroethoxy)pyridin-4-yl]-5-(trifluoromethyl)benzoxazole]	–	–	–	≥ 90
CCc1cnccc1-c1nc2cc(C(F)(F)F)c(Cl)cc2o1 [active compound 93, 6-chloro-2-(3-ethylpyridin-4-yl)-5-(trifluoromethyl)benzoxazole]	–	–	≥ 90	≥ 90
Fc1cc2oc(-c3ccncc3Cl)nc2cc1C(F)(F)F [active compound 94]	–	–	≥ 90	–
COc1cnccc1-c1nc2cc(C(C)(C)C)ccc2o1 [active compound 100, 5-tert-butyl-2-(3-methoxypyridin-4-yl)benzoxazole]	≥ 90	≥ 90	–	≥ 90
CC(C)(C)c1ccc2oc(-c3ccncc3OCC(F)(F)F)nc2c1 [active compound 101, 5-tert-butyl-2-[3-(2,2,2-trifluoroethoxy)pyridin-4-yl]benzoxazole]	≥ 90	≥ 90	–	≥ 90
CC(C)Oc1cnccc1-c1nc2cc(C(C)(C)C)ccc2o1 [active compound 104, 5-tert-butyl-2-(3-isopropoxypyridin-4-yl)benzoxazole]	≥ 90	≥ 90	–	–
CCc1cnccc1-c1nc2cc(C(C)(C)C)ccc2o1 [active compound 105, 5-tert-butyl-2-(3-ethylpyridin-4-yl)benzoxazole]	≥ 90	≥ 90	–	–
FC(F)COc1cnccc1-c1nc2cc(C(F)(F)F)ccc2o1 [active compound 110, 2-[3-(2,2-difluoroethoxy)pyridin-4-yl]-5-(trifluoromethyl)benzoxazole]	≥ 90	≥ 90	≥ 90	≥ 90
CC(Oc1cnccc1-c1nc2cc(C(F)(F)F)ccc2o1)C(F)(F)F (centres unmarked) [active compound 111, 2-[3-(1-methyl-2,2,2-trifluoroethoxy)pyridin-4-yl]-5-(trifluoromethyl)benzoxazole]	≥ 90	≥ 90	–	≥ 90
FC(F)(F)c1ccc2oc(-c3ccncc3OC3CCCC3)nc2c1 [active compound 115, 2-(3-cyclopentyloxypyridin-4-yl)-5-(trifluoromethyl)benzoxazole]	–	≥ 90	–	–
CC(C)COc1cnccc1-c1nc2cc(C(F)(F)F)ccc2o1 [active compound 116, 2-(3-isobutoxypyridin-4-yl)-5-(trifluoromethyl)benzoxazole]	–	≥ 90	–	–
CCC(C)Oc1cnccc1-c1nc2cc(C(F)(F)F)ccc2o1 (centres unmarked) [active compound 119, 2-(3-sec-butoxypyridin-4-yl)-5-(trifluoromethyl)benzoxazole]	–	–	≥ 90	–
COCCOc1cnccc1-c1nc2cc(C(F)(F)F)ccc2o1 [active compound 120, 2-[3-(2-methoxyethoxy)pyridin-4-yl]-5-(trifluoromethyl)benzoxazole]	–	–	≥ 90	–
FC(F)Oc1cnccc1-c1nc2cc(C(F)(F)F)ccc2o1 [active compound 126, 2-(3-difluoromethoxypyridin-4-yl)-5-(trifluoromethyl)benzoxazole]	≥ 90	≥ 90	≥ 90	≥ 90
FC(F)(F)c1ccc2oc(-c3ccncc3-c3cccnc3)nc2c1 [active compound 128, 4-(5-trifluoromethyl-benzoxazole-2-yl)-[3,3′]bipyridinyl]	–	–	≥ 90	–
CN(C)c1cnccc1-c1nc2cc(C(F)(F)F)ccc2o1 [active compound 131, dimethyl-{4-[5-(trifluoromethyl)benzoxazole-2-yl]pyridin-3-yl}amine]	–	–	≥ 90	–
